BindingDB's records for patent US20240252496 (The Children’s Medical Center, 2024)
pIC50: −log10 of the molar value.

How the values were obtained:
Test in all cases: Conditioned place preference (CPP) assay
[1] = biological target: Histone deacetylase 1 (Homo sapiens, UniProt Q13547)
[2] = biological target: Histone deacetylase 2 (Homo sapiens, UniProt Q92769)
[3] = biological target: Histone deacetylase 3 (Homo sapiens, UniProt O15379)
Chain of Histone deacetylase 3 (O15379 whole entry): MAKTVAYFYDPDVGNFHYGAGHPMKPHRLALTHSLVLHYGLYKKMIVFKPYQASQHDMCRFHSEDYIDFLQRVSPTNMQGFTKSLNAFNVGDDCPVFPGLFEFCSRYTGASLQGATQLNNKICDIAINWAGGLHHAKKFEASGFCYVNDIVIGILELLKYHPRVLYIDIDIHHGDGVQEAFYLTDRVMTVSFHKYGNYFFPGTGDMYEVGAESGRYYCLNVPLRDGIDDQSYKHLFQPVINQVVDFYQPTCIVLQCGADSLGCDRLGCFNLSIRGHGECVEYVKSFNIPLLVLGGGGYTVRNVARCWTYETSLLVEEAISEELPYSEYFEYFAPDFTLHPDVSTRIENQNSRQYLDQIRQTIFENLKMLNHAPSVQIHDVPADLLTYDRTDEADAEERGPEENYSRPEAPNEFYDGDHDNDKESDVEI

Chain of Histone deacetylase 1 (Q13547 whole entry): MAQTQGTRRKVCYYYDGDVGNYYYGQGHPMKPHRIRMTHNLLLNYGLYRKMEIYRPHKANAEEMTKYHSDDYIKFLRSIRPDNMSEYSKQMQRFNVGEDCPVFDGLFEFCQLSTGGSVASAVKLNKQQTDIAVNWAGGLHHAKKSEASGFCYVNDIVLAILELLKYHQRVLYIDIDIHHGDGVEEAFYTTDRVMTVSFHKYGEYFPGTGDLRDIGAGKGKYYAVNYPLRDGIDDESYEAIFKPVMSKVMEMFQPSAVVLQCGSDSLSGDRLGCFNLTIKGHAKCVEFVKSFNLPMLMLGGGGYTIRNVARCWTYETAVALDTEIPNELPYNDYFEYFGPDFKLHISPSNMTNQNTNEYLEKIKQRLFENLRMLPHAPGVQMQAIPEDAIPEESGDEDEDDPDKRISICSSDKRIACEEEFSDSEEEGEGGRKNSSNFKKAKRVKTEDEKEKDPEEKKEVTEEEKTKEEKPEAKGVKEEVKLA
Chain of Histone deacetylase 2 (Q92769 whole entry): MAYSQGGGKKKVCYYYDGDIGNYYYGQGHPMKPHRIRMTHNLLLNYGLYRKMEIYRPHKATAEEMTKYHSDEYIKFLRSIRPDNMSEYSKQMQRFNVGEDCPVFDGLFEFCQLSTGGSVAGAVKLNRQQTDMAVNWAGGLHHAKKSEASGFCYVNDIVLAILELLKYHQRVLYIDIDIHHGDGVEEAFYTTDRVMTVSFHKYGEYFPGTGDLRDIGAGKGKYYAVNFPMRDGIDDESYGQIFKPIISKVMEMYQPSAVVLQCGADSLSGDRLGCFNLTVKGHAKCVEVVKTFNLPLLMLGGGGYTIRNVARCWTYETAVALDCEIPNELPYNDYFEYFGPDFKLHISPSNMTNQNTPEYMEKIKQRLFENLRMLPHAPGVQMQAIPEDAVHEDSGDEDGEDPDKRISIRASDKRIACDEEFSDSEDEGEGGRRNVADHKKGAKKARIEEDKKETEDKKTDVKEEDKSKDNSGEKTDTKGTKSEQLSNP

Structure (SMILES): COC(c1ccc(F)cc1)(c1ccc(F)cc1)c1ccc(C(=O)NCCCCCCC(=O)NO)cc1 [US20240252496, Example ACY-257]
- pIC50 [1]: 6.57
- pIC50 [2]: 6.28
- pIC50 [3]: 6.07
